This note sets out measurements from ChEMBL document CHEMBL1681728, “An automated, polymer-assisted strategy for the preparation of urea and thiourea derivatives of 15-membered azalides as potential antimalarial chemotherapeutics” (Bioorg Med Chem, 2011).

Common to all, as to assay type: functional, organism-based
Experiment [1] has as its system Plasmodium falciparum. Put plainly: Antimalarial activity against chloroquine-sensitive Plasmodium falciparum D6 assessed as inhibition of [3H]hypoxanthine incorporation after 96 hrs by microtiter plate scintillation counting.
Experiment [2] concerns Plasmodium falciparum. Put plainly: Antimalarial activity against chloroquine-,pyrimethamine-resistant Plasmodium falciparum W2 assessed as inhibition of [3H]hypoxanthine incorporation after 96 hrs by microtiter plate scintillation counting.
Experiment [3] concerns Plasmodium falciparum. The experiment can be described thus: Antimalarial activity against multidrug-resistant Plasmodium falciparum TM91C235 assessed as inhibition of [3H]hypoxanthine incorporation after 96 hrs by microtiter plate scintillation counting.

SMILES strings stand for the structures. pIC50: −log10 of the molar value.

A word on the pIC50: it is −log10 of the IC50, conventionally taken in molar units. With `CC[C@H]1OC(=O)[C@H](C)[C@@H](O[C@H]2C[C@@](C)(OC)[C@@H](O)[C@H](C)O2)[C@H](C)[C@@H](O[C@@H]2O[C@H](C)C[C@H](N(C)C)[C@H]2O)[C@](C)(O)C[C@@H](C)CN(CCCNC(=S)Nc2ccc(N(CC)CC)cc2)[C@H](C)[C@@H](O)[C@]1(C)O`, the negative logarithm of the IC50 (pIC50) in experiment [1] was 6.12; in experiment [2], 6.17; in experiment [3] it was 6.53.

In the case of `CC[C@H]1OC(=O)[C@H](C)[C@@H](O[C@H]2C[C@@](C)(OC)[C@@H](O)[C@H](C)O2)[C@H](C)[C@@H](O[C@@H]2O[C@H](C)C[C@H](N(C)C)[C@H]2O)[C@](C)(O)C[C@@H](C)CN(CCCNC(=O)NCC2CCCCC2)[C@H](C)[C@@H](O)[C@]1(C)O`, the results for the pIC50 in experiment [1], in experiment [2] and in experiment [3] were 6.22, 6.95 and 6.85, respectively.

On to `CC[C@H]1OC(=O)[C@H](C)[C@@H](O[C@H]2C[C@@](C)(OC)[C@@H](O)[C@H](C)O2)[C@H](C)[C@@H](O[C@@H]2O[C@H](C)C[C@H](N(C)C)[C@H]2O)[C@](C)(O)C[C@@H](C)CN(CCCNC(=S)Nc2ccccc2F)[C@H](C)[C@@H](O)[C@]1(C)O`, for which the values for the negative-log IC50 (pIC50) in experiment [1], in experiment [2] and in experiment [3] were 6.01, 6.40 and 6.91, respectively.

For the compound `CC[C@H]1OC(=O)[C@H](C)[C@@H](O[C@H]2C[C@@](C)(OC)[C@@H](O)[C@H](C)O2)[C@H](C)[C@@H](O[C@@H]2O[C@H](C)C[C@H](N(C)C)[C@H]2O)[C@](C)(O)C[C@@H](C)CN(CCCNC(=S)Nc2ccc(S(=O)(=O)N3CCCCC3)cc2)[C@H](C)[C@@H](O)[C@]1(C)O`, the negative logarithm of the IC50 (pIC50) is 6.76 in experiment [1], 7.28 in experiment [2] and 7.17 in experiment [3].

With `CC[C@H]1OC(=O)[C@H](C)[C@@H](O[C@H]2C[C@@](C)(OC)[C@@H](O)[C@H](C)O2)[C@H](C)[C@@H](O[C@@H]2O[C@H](C)C[C@H](N(C)C)[C@H]2O)[C@](C)(O)C[C@@H](C)CN(CCCNC(=S)Nc2ccc(/N=N/c3ccccc3)cc2)[C@H](C)[C@@H](O)[C@]1(C)O`, the pIC50 is 6.97 in experiment [1], 7.32 in experiment [2] and 7.02 in experiment [3].

`CC[C@H]1OC(=O)[C@H](C)[C@@H](O[C@H]2C[C@@](C)(OC)[C@@H](O)[C@H](C)O2)[C@H](C)[C@@H](O[C@@H]2O[C@H](C)C[C@H](N(C)C)[C@H]2O)[C@](C)(O)C[C@@H](C)CN(CCCNC(=O)NC(C)(C)CC(C)(C)C)[C@H](C)[C@@H](O)[C@]1(C)O`: the pIC50 is 6.57 in experiment [1], 7.11 in experiment [2] and 6.74 in experiment [3].

In the case of `CC[C@H]1OC(=O)[C@H](C)[C@@H](O[C@H]2C[C@@](C)(OC)[C@@H](O)[C@H](C)O2)[C@H](C)[C@@H](O[C@@H]2O[C@H](C)C[C@H](N(C)C)[C@H]2O)[C@](C)(O)C[C@@H](C)CN(CCCNC(=O)Nc2cccc3nsnc23)[C@H](C)[C@@H](O)[C@]1(C)O`, the pIC50 in experiment [1] is 6.57; in experiment [2] it was 7.16; in experiment [3] it was 7.19.

Turning to `CC[C@H]1OC(=O)[C@H](C)[C@@H](O[C@H]2C[C@@](C)(OC)[C@@H](O)[C@H](C)O2)[C@H](C)[C@@H](O[C@@H]2O[C@H](C)C[C@H](N(C)C)[C@H]2O)[C@](C)(O)C[C@@H](C)CN(CCCNC(=O)Nc2cccc(F)c2)[C@H](C)[C@@H](O)[C@]1(C)O`, the pIC50 in experiment [1] was 6.24; in experiment [2] it was 6.55; in experiment [3], 6.79.

`CC[C@H]1OC(=O)[C@H](C)[C@@H](O[C@H]2C[C@@](C)(OC)[C@@H](O)[C@H](C)O2)[C@H](C)[C@@H](O[C@@H]2O[C@H](C)C[C@H](N(C)C)[C@H]2O)[C@](C)(O)C[C@@H](C)CN(CCCNC(=S)Nc2ccc3c(c2)OCO3)[C@H](C)[C@@H](O)[C@]1(C)O`: the pIC50 in experiment [1] was 6.48; in experiment [2], 6.74; in experiment [3] it was 6.76.

Consider `CC[C@H]1OC(=O)[C@H](C)[C@@H](O[C@H]2C[C@@](C)(OC)[C@@H](O)[C@H](C)O2)[C@H](C)[C@@H](O[C@@H]2O[C@H](C)C[C@H](N(C)C)[C@H]2O)[C@](C)(O)C[C@@H](C)CN(C)[C@H](C)[C@@H](O)[C@]1(C)O` [AZITHROMYCIN], for which the values for the negative logarithm of the IC50 (pIC50) in experiment [1], in experiment [2] and in experiment [3] were 5.99, 5.65 and 5.69, respectively.

Consider `CC[C@H]1OC(=O)[C@H](C)[C@@H](O[C@H]2C[C@@](C)(OC)[C@@H](O)[C@H](C)O2)[C@H](C)[C@@H](O[C@@H]2O[C@H](C)C[C@H](N(C)C)[C@H]2O)[C@](C)(O)C[C@@H](C)CN(CCCNC(=O)Nc2ccc3c(c2)CCO3)[C@H](C)[C@@H](O)[C@]1(C)O`, for which the pIC50 was 5.69 in experiment [1], 5.80 in experiment [2] and 6.03 in experiment [3].

As for `CC[C@H]1OC(=O)[C@H](C)[C@@H](O[C@H]2C[C@@](C)(OC)[C@@H](O)[C@H](C)O2)[C@H](C)[C@@H](O[C@@H]2O[C@H](C)C[C@H](N(C)C)[C@H]2O)[C@](C)(O)C[C@@H](C)CN(CCCNC(=O)Nc2ccc(OC)cc2)[C@H](C)[C@@H](O)[C@]1(C)O`, the values for the negative logarithm of the IC50 (pIC50) in experiment [1], in experiment [2] and in experiment [3] were 5.71, 6.59 and 6.36, respectively.

In the case of `CC[C@H]1OC(=O)[C@H](C)[C@@H](O[C@H]2C[C@@](C)(OC)[C@@H](O)[C@H](C)O2)[C@H](C)[C@@H](O[C@@H]2O[C@H](C)C[C@H](N(C)C)[C@H]2O)[C@](C)(O)C[C@@H](C)CN(CCCNC(=S)Nc2ccc(Cl)cc2)[C@H](C)[C@@H](O)[C@]1(C)O`, the pIC50 in experiment [1] is 6.73; in experiment [2], 7.27; in experiment [3], 6.97.

For `CC[C@H]1OC(=O)[C@H](C)[C@@H](O[C@H]2C[C@@](C)(OC)[C@@H](O)[C@H](C)O2)[C@H](C)[C@@H](O[C@@H]2O[C@H](C)C[C@H](N(C)C)[C@H]2O)[C@](C)(O)C[C@@H](C)CN(CCCNC(=O)NC(C)(C)C)[C@H](C)[C@@H](O)[C@]1(C)O`, the pIC50 in experiment [1] was 5.26; in experiment [2] it was 6.39; in experiment [3], 6.10.

Turning to `CC[C@H]1OC(=O)[C@H](C)[C@@H](O[C@H]2C[C@@](C)(OC)[C@@H](O)[C@H](C)O2)[C@H](C)[C@@H](O[C@@H]2O[C@H](C)C[C@H](N(C)C)[C@H]2O)[C@](C)(O)C[C@@H](C)CN(CCCNC(=S)Nc2cccnc2)[C@H](C)[C@@H](O)[C@]1(C)O`, the pIC50 in experiment [1] was 5.92; in experiment [2], 5.92; in experiment [3] it was 6.10.

For the compound `CC[C@H]1OC(=O)[C@H](C)[C@@H](O[C@H]2C[C@@](C)(OC)[C@@H](O)[C@H](C)O2)[C@H](C)[C@@H](O[C@@H]2O[C@H](C)C[C@H](N(C)C)[C@H]2O)[C@](C)(O)C[C@@H](C)CN(CCCNC(=S)NCCCN(CC)CC)[C@H](C)[C@@H](O)[C@]1(C)O`, the values for the pIC50 in experiment [1], in experiment [2] and in experiment [3] were 6.10, 5.50 and 4.91, respectively.

For `CC[C@H]1OC(=O)[C@H](C)[C@@H](O[C@H]2C[C@@](C)(OC)[C@@H](O)[C@H](C)O2)[C@H](C)[C@@H](O[C@@H]2O[C@H](C)C[C@H](N(C)C)[C@H]2O)[C@](C)(O)C[C@@H](C)CN(CCCNC(=S)Nc2ccc(Cl)c(C(F)(F)F)c2)[C@H](C)[C@@H](O)[C@]1(C)O`, the negative logarithm of the IC50 (pIC50) in experiment [1] is 7.27; in experiment [2], 7.46; in experiment [3], 7.25.

On to `CCOC(=O)c1ccc(NC(=S)NCCCN2C[C@H](C)C[C@@](C)(O)[C@H](O[C@@H]3O[C@H](C)C[C@H](N(C)C)[C@H]3O)[C@@H](C)[C@H](O[C@H]3C[C@@](C)(OC)[C@@H](O)[C@H](C)O3)[C@@H](C)C(=O)O[C@H](CC)[C@@](C)(O)[C@H](O)[C@H]2C)cc1`, for which the pIC50 in experiment [1] is 6.92; in experiment [2], 7.15; in experiment [3], 6.97.

For the compound `CC[C@H]1OC(=O)[C@H](C)[C@@H](O[C@H]2C[C@@](C)(OC)[C@@H](O)[C@H](C)O2)[C@H](C)[C@@H](O[C@@H]2O[C@H](C)C[C@H](N(C)C)[C@H]2O)[C@](C)(O)C[C@@H](C)CN(CCCNC(=O)NCc2ccco2)[C@H](C)[C@@H](O)[C@]1(C)O`, the results for the pIC50 in experiment [1], in experiment [2] and in experiment [3] were 5.25, 6.54 and 6.30, respectively.

In the case of `CC[C@H]1OC(=O)[C@H](C)[C@@H](O[C@H]2C[C@@](C)(OC)[C@@H](O)[C@H](C)O2)[C@H](C)[C@@H](O[C@@H]2O[C@H](C)C[C@H](N(C)C)[C@H]2O)[C@](C)(O)C[C@@H](C)CN(CCCNC(=S)Nc2ccc(F)c(F)c2F)[C@H](C)[C@@H](O)[C@]1(C)O`, the results for the negative-log IC50 (pIC50) in experiment [1], in experiment [2] and in experiment [3] were 6.35, 6.78 and 7.13, respectively.

For `CC[C@H]1OC(=O)[C@H](C)[C@@H](O[C@H]2C[C@@](C)(OC)[C@@H](O)[C@H](C)O2)[C@H](C)[C@@H](O[C@@H]2O[C@H](C)C[C@H](N(C)C)[C@H]2O)[C@](C)(O)C[C@@H](C)CN(CCCNC(=S)NCCCSC)[C@H](C)[C@@H](O)[C@]1(C)O`, the negative logarithm of the IC50 (pIC50) was 6.05 in experiment [1], 6.69 in experiment [2] and 6.45 in experiment [3].

As to `CC[C@H]1OC(=O)[C@H](C)[C@@H](O[C@H]2C[C@@](C)(OC)[C@@H](O)[C@H](C)O2)[C@H](C)[C@@H](O[C@@H]2O[C@H](C)C[C@H](N(C)C)[C@H]2O)[C@](C)(O)C[C@@H](C)CN(CCCNC(=O)NC2CCCCC2)[C@H](C)[C@@H](O)[C@]1(C)O`, the figures for the pIC50 in experiment [1], in experiment [2] and in experiment [3] were 5.71, 6.73 and 6.39, respectively.

With `CC[C@H]1OC(=O)[C@H](C)[C@@H](O[C@H]2C[C@@](C)(OC)[C@@H](O)[C@H](C)O2)[C@H](C)[C@@H](O[C@@H]2O[C@H](C)C[C@H](N(C)C)[C@H]2O)[C@](C)(O)C[C@@H](C)CN(CCCNC(=O)NC2CCN(C(=O)OCc3ccccc3)CC2)[C@H](C)[C@@H](O)[C@]1(C)O`, the pIC50 in experiment [1] was 6.20; in experiment [2] it was 6.56; in experiment [3] it was 6.63.

For `CC[C@H]1OC(=O)[C@H](C)[C@@H](O[C@H]2C[C@@](C)(OC)[C@@H](O)[C@H](C)O2)[C@H](C)[C@@H](O[C@@H]2O[C@H](C)C[C@H](N(C)C)[C@H]2O)[C@](C)(O)C[C@@H](C)CN(CCCNC(=S)Nc2cccc3nsnc23)[C@H](C)[C@@H](O)[C@]1(C)O`, the negative logarithm of the IC50 (pIC50) in experiment [1] is 6.75; in experiment [2], 7.05; in experiment [3], 6.99.
